A value given as a limit tells only on which side of the number the result lay.

One test has as its target M^pro protein (SARS-CoV-2 main protease) (Severe acute respiratory syndrome coronavirus 2, UniProt P0DTD1). Description: FRET-based in vitro enzymatic inhibition assay.
Settings: not given
Format: biochemical.
Consider `Cc1cn(-c2cc(NC(=O)c3ccc(C)c(Nc4nccc(-c5cccnc5)n4)c3)cc(C(F)(F)F)c2)cn1` [Nilotinib, reference compound], for which the IC50 (commonly the point on the concentration scale where inhibition reaches its midpoint) was 19.9 ± 1.27 µM.

The same test, now with this note: 0.2 μM M^pro, 20 μM substrate MCA-[…]-Lys(Dnp)-Lys-NH2, 30 min preincubation at 37 °C; read-out: IC50 Value.
Consider `Nc1n[nH]c2cccc(-c3ccc(C(=O)NCCNC(=O)c4ccc(Br)cc4)cc3)c12` [Compound V111], for which the half-inhibitory concentration (IC50) was > 20 µM.
Regarding `CCC(=O)Nc1ccc(-c2cccc(C(=O)N[C@@H]3CN[C@H](C(=O)Nc4ccc(Cl)c(C(F)(F)F)c4)C3)c2)cn1` [Compound V139], the IC50 was > 20 µM.
As for `O=C(c1ccc(-c2cc(Nc3ccc(Cl)cc3Cl)ncn2)cc1)N1CCN(C(=O)c2ccccc2F)CC1` [Compound V159], the IC50 is > 20 µM.
`Nc1n[nH]c2cccc(-c3ccc(C(=O)N4CCN(C(=O)c5cccc(F)c5)CC4)cc3)c12` [Compound V205]: the 50% inhibitory concentration (IC50) is > 20 µM.
As for `CCN(CC)C(=O)c1cncc(-c2cccc(C(=O)N[C@@H](C(=O)Nc3ccc(Cl)c(C(F)(F)F)c3)C(C)(C)C)c2)c1` [Compound V226], the 50% inhibitory concentration (IC50) is > 20 µM.
`CC(=O)Nc1ccc(-c2ccc(C(=O)N[C@H](C(=O)Nc3ccc(Cl)c(C(F)(F)F)c3)C(C)(C)C)cc2)cn1` [Compound V231]: the concentration for half-maximal inhibition (IC50) was > 20 µM.
With `CC(C)(C)OCC(NC(=O)c1ccc(-c2cncc(C(=O)NC3CC3)c2)cc1)C(=O)Nc1ccc(Cl)c(C(F)(F)F)c1` (stereo not shown) [Compound V243], the IC50 is > 20 µM.
Consider `Nc1n[nH]c2cc(-c3cn([C@@H]4CN[C@H](C(=O)Nc5ccc(Cl)c(C(F)(F)F)c5)C4)nn3)ccc12` [Compound V291], for which the IC50 came out at 2.77 ± 0.56 µM.
Consider `Nc1nc2cc(-c3cn([C@@H]4CN[C@H](C(=O)Nc5ccc(Cl)c(C(F)(F)F)c5)C4)nn3)cnc2s1` [Compound V304], for which the IC50 is > 20 µM.

Source of the values: publication PMC10379331, “Identification of a Putative SARS-CoV-2 Main Protease Inhibitor through In Silico Screening of Self-Designed Molecular Library” (International Journal of Molecular Sciences, 2023).
